The results in this text go back to patent publication EP2505659A1, “Methods for the identification of dioxygenase interacting molecules and for the purification of dioxygenase proteins” (CELLZOME AG, priority 2011, dated 2012).

SMILES strings stand for the structures. Structures can show the parent of a compound that is named as a salt. Where two headings read alike, the source gives them in different places.

What all share (test): Bead competition binding assay, immobilized compound A, K-562, HL-60 and Jurkat nuclear lysates
Experiment [1] deals with T1, P4HA1 (Homo sapiens, UniProt P13674).
T1 construct: endogenous in cells
T1 sequence (P13674 18-534): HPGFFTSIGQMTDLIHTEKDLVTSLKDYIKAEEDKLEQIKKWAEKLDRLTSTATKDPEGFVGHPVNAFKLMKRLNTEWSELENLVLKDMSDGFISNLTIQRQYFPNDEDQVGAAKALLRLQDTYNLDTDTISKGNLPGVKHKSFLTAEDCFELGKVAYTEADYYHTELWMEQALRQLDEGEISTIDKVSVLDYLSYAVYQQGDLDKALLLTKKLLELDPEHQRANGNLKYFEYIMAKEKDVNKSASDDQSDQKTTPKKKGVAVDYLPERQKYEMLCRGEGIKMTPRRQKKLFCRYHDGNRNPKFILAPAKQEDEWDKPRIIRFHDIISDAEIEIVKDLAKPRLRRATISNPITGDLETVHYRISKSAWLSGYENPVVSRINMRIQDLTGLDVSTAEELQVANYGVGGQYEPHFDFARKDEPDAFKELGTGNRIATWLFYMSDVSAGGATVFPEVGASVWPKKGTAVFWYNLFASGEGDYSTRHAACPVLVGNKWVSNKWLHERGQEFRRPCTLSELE
T1 sequence (P07237 18-508 partner): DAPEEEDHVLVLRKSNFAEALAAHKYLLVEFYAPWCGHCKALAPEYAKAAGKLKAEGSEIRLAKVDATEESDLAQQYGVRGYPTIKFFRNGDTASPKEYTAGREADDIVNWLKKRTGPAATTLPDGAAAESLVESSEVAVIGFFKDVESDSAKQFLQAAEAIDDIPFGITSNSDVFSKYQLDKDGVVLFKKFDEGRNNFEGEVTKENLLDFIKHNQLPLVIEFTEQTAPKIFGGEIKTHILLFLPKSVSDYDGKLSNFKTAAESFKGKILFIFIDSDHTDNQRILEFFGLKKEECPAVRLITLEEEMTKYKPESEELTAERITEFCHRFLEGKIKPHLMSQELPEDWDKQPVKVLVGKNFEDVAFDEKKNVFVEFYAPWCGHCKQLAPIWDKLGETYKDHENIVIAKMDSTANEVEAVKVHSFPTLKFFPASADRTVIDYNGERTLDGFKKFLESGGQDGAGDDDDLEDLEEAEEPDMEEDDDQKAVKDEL
The settings on record: read-out: Fold change versus DMSO control, P4HA1, 100 µM free compound A. An excerpt: (§1) The proteins bound to the immobilized compound were eluted with detergent-containing buffer and separated on a SDS-polyacryamide gel. […] Table 4: Compound treatment and TMT-labeling of cell samples
(§2) Jurkat cells (ATCC number TIB-152) were either obtained from an external supplier (CIL SA, Mons, Belgium) or grown in one litre Spinner flasks (Integra Biosciences, #182101) in suspension in RPMI 1640 medium (Invitrogen, #21875-034) supplemented with 10% Fetal Bovine Serum (Invitrogen, #10270-106) at a density between 0.2 x 10^6 and 1.0 x 10^6 cells/ml. Cells were harvested by centrifugation, washed once with 1 x PBS buffer (Invitrogen, #14190-094) and cell pellets were frozen in liquid nitrogen and subsequently stored at -80°C.
(§3) Source of HL-60 cells: HL-60 cell line (DSMZ, Braunschweig, Germany; DSMZ number ACC3). K562 cells were also purchased from DSMZ (Braunschweig, Germany).
(§4) Extracts of nuclei were prepared according to the Dignam protocol (Dignam et al., 1983. Nucleic Acids Res. 11 (5):1475-89).
(§5) The TMT reagents are a set of multiplexed, amine-specific, stable isotope reagents that can label peptides on amino groups in up to six different biological samples enabling simultaneous identification and quantitation of peptides. The TMT reagents were used according to instructions provided by the manufacturer. The samples were resuspended in 10 µl 50 mM TEAB solution, pH 8.5 and 10 µl acetonitril were added. The TMT reagent was dissolved in acetonitrile to a final concentration of 24 mM and 10 µl of reagent solution were added to the sample. The labeling reaction was performed at room temperature for one hour on a horizontal shaker and stopped by adding 5 µl of 100 mM TEAB and 100 mM glycine in water. The labeled samples were then combined, dried in a vacuum centrifuge and resuspended in 60% 200mM TEAB / 40% acetonitril.
(§6) Table 5: Peptide elution off the LC system
(§7) Search criteria varied depending on which mass spectrometer was used for the analysis.

Experiment [2] has as its target T2, C17ORF101 (Homo sapiens, UniProt Q6PK18).
T2 construct: capturing and identification of dioxygenases from nuclear protein extracts; endogenous in cells
T2 sequence (Q6PK18 1-331 isoform Q6PK18-2): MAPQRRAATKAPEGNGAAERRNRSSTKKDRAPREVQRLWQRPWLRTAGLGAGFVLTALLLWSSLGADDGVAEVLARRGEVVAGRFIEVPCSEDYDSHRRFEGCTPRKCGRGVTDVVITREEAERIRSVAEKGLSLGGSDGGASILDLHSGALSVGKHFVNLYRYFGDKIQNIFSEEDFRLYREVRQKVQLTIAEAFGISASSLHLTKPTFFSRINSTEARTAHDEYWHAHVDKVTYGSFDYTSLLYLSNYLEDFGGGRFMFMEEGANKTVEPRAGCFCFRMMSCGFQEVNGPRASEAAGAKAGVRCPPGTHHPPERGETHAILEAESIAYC
To be noted: read-out: Fold change versus DMSO control, C17ORF101; 100 µM free compound A; HL-60 nuclear lysate.
Description: as §1, §2, §3, §4, §5, §6, §7

Experiment [3] deals with T3, ALKBH3 (Homo sapiens, UniProt Q96Q83).
T3 construct: capturing and identification of dioxygenases from nuclear protein extracts; endogenous in cells
T3 sequence (Q96Q83 1-286): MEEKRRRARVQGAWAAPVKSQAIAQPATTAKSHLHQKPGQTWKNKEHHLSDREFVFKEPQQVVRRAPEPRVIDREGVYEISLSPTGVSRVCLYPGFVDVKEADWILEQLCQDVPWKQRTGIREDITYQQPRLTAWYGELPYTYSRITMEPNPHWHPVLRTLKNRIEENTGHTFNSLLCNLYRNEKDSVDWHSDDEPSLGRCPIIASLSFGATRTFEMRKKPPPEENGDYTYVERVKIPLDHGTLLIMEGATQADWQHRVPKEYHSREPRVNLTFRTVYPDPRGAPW
The settings on record: 100 µM free compound A, read-out: Fold change versus DMSO control.
Description: (§8) K562 cells were also purchased from DSMZ (Braunschweig, Germany).
as §6

For experiment [4], the target named is T4, FTO (Homo sapiens, UniProt Q9C0B1).
T4 construct: endogenous in cells
T4 sequence (Q9C0B1 whole entry): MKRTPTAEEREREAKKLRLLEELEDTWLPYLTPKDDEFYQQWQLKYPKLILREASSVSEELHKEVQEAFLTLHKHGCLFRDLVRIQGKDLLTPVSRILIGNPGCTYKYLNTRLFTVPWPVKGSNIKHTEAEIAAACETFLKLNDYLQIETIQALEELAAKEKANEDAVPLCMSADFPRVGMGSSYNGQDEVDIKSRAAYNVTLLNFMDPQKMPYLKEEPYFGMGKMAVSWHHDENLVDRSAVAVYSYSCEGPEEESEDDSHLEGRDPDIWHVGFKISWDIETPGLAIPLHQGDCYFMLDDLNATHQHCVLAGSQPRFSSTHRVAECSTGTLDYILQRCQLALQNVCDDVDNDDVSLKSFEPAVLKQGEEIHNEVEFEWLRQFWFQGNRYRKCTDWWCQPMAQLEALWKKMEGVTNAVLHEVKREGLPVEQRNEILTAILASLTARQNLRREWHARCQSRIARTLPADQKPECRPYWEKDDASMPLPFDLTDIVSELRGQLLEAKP
The settings on record: 100 µM free compound A, read-out: Fold change versus DMSO control.
Description: as §8, §6

Experiment [5] addresses T5, LEPREL2 (Homo sapiens, UniProt Q8IVL6).
T5 construct: capturing and identification of dioxygenases from nuclear protein extracts; endogenous in cells
T5 sequence (Q8IVL6 21-736): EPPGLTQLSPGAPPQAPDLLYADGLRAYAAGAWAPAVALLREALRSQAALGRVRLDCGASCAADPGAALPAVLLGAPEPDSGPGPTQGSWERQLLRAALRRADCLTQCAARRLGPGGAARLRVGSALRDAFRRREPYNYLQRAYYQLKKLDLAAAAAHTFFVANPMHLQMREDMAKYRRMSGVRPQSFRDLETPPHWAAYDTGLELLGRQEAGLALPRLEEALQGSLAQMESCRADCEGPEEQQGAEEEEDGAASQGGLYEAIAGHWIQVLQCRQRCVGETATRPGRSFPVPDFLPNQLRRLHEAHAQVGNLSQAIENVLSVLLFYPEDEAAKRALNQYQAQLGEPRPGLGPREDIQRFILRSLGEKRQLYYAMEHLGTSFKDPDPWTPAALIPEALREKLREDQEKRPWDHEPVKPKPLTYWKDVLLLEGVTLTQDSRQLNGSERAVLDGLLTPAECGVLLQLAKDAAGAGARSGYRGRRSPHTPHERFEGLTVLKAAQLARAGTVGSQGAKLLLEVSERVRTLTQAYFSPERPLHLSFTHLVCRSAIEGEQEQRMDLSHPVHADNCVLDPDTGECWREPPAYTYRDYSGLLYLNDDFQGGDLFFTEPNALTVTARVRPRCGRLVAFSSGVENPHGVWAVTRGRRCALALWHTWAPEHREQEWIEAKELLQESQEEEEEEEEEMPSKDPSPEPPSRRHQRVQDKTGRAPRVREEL
The settings on record: 100 µM free compound A, read-out: Fold change versus DMSO control.
Description: as §8, §6

`O=C(O)CNC(=O)C1C(=O)OC2(CCNCC2)OC1=O` [compound A, 2-(2,4-dioxo-1,5-dioxa-9-azaspiro[5.5]undecane-3-carboxamido)acetic acid hydrochloride]: the remaining binding at 100 µM in experiment [1] (HL-60 nuclear lysate) is 25%; in experiment [1] (K-562 nuclear lysate), 31%; in experiment [2] it was 67%; in experiment [3] (HL-60 nuclear lysate), 36%; in experiment [3] (Jurkat nuclear lysate), 32%; in experiment [4] (Jurkat nuclear lysate), 8%. The figures for the remaining binding at 100 µM in experiment [4] (K-562 nuclear lysate), in experiment [5] (Jurkat nuclear lysate) and in experiment [5] (K-562 nuclear lysate) were 19%, 9% and 25%, respectively.
